From patent US9040527B2, “Pyrimidinediamine kinase inhibitors” (Rigel Pharmaceuticals, Inc., priority 2008, dated 2015)

Assays:
[1] = target: T1, PLK1 (Homo sapiens, UniProt P53350); experiment: Cellular PLK1 assay in K562 cells overexpressing CDC25C; type: cell-based; parameters: endogenous in cells; host or cells: K562 (human chronic myelogenous leukemia) overexpressing CDC25C, nocodazole-arrested; conditions: nocodazole arrested, cdc25c p-Ser198 readout
How it was run: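 K562 cells overexpressing CDC25C were arrested with 333 nM nocodazole for 18 h at 37 °C, then exposed to compound at 8 points from 10 μM to 0.005 μM in duplicate for 120 min. After fixation and permeabilization, cells were stained for cdc25c pSer198 with a PE secondary and read by flow cytometry, 10,000 cells per well.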

[2] = target: T1, PLK1; experiment: In vitro PLK1 ELISA assay (biochemical); parameters: purchased Cell Signalling 7728
How it was run: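 Commercial PLK1 phosphorylates neutravidin-captured biotinylated CHK2 peptide for 45 min at room temperature in HEPES pH 7.2 with Mg2+/Mn2+/DTT, compounds at 10 μM to 0.005 μM. Phospho-CHK2(T68) antibody plus HRP secondary gives chemiluminescent read-out used for IC50.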

[3] = ELISA, CHK2-derived peptide substrate, read-out: PLK1 IC50 (μM) biochemical assay
[4] = read-out: IC50 in biochemical in vitro PLK1 ELISA assay (less than 10 μM)

T1 sequence (P53350 whole entry): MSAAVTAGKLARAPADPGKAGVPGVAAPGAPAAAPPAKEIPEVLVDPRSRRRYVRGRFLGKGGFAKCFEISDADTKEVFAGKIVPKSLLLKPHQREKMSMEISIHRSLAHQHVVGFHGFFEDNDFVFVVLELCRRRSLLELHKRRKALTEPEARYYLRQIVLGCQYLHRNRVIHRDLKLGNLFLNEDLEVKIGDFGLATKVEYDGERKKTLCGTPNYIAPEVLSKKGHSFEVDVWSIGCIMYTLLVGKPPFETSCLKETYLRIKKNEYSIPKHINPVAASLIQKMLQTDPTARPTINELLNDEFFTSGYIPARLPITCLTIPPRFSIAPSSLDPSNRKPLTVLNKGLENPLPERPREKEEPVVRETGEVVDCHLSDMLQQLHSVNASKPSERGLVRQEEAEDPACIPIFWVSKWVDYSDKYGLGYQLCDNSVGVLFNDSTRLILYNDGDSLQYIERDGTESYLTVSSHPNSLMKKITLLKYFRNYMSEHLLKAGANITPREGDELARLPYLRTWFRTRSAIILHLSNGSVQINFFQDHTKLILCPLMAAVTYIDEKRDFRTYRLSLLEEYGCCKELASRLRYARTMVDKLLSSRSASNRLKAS

| Structure (SMILES) | IC50 [1] [µM] | IC50 [2, 3] [µM] | IC50 [2, 4] [µM] |
| --- | --- | --- | --- |
| Cc1cc(Nc2ncc(C)c(Nc3ccc4c(c3)N(Cc3ccccn3)C(=O)C(F)(F)O4)n2)ccc1N1CC2CC1CN2C (stereo not drawn) [compound 139, 2,2-difluoro-6-(5-methyl-2-(3-methyl-4-(5-methyl-2,5-diaza-bicyclo[2.2.1]heptan-2-yl)phenyl-amino)pyrimidin-4-ylamino)-4-(pyridin-2-ylmethyl)-2H-benzo[b][1,4]oxazin-3(4H)-one] | 5 to 10 | ≥ 10 |  |
| CN1CCN(c2cccc(Nc3ncc(F)c(Nc4ccc5c(n4)NCCO5)n3)c2)CC1 [compound 167, N4-(3,4-dihydro-2H-pyrido[3,2-b][1,4]oxazin-6-yl)-5-fluoro-N2-(3-(4-methylpiperazin-1-yl)phenyl)pyrimidine-2,4-diamine] | < 0.5 | < 0.5 | < 10 |
| CCN1CCN(c2ccc(Nc3ncc(Cl)c(Nc4ccc5c(c4)N(CC)C(=O)CO5)n3)cc2)CC1 [compound 183, 6-(5-chloro-2-(4-(4-ethylpiperazin-1-yl)phenylamino)pyrimidin-4-ylamino)-4-ethyl-2H-benzo[b][1,4]oxazin-3(4H)-one] | 0.5 to 5 | 0.5 to 5 | < 10 |
| CCN1C(=O)COc2ccc(Nc3nc(Nc4ccc(N5CCN(C)CC5)cc4)ncc3C)cc21 [compound 189, 4-ethyl-6-(5-methyl-2-(4-(4-methylpiperazin-1-yl)phenylamino)pyrimidin-4-ylamino)-2H-benzo[b][1,4]oxazin-3(4H)-one] | 0.5 to 5 | 0.5 to 5 | < 10 |
| CCN1C(=O)COc2ccc(Nc3nc(Nc4ccc(N5CCN(C)CC5)c(C)c4)ncc3C)cc21 [compound 191, 4-ethyl-6-(5-methyl-2-(3-methyl-4-(4-methylpiperazin-1-yl)phenylamino)pyrimidin-4-ylamino)-2H-benzo[b][1,4]oxazin-3(4H)-one] | ≥ 10 | 5 to 10 | < 10 |
| CCN1C(=O)COc2ccc(Nc3nc(Nc4ccc(N5CCN(S(C)(=O)=O)CC5)cc4)ncc3C)cc21 [compound 196, 4-ethyl-6-(5-methyl-2-(4-(4-(methyl-sulfonyl)piperazin-1-yl)phenylamino)pyrimidin-4-ylamino)-2H-benzo[b][1,4]oxazin-3(4H)-one] | 5 to 10 | 0.5 to 5 | < 10 |

Next, values leading:

| IC50 [1] [µM] | IC50 [2, 3] [µM] | IC50 [2, 4] [µM] | Structure (SMILES) |
| --- | --- | --- | --- |
| ≥ 10 | ≥ 10 |  | CCCN1C(=O)COc2ccc(Nc3nc(Nc4ccc(N5CCNCC5)c(C(F)(F)F)c4)ncc3F)nc21 [compound 138, 6-(5-fluoro-2-(4-(piperazin-1-yl)-3-(trifluoromethyl)phenyl-amino)pyrimidin-4-ylamino)-4-propyl-2H-pyrido[3,2-b][1,4]oxazin-3(4H)-one] |
| < 0.5 | < 0.5 | < 10 | CN1CCN(c2cccc(Nc3ncc(F)c(Nc4ccc5c(n4)NC(=O)CO5)n3)c2)CC1 [compound 157, 6-(5-fluoro-2-(3-(4-methylpiperazin-1-yl)phenylamino)pyrimidin-4-ylamino)-2H-pyrido[3,2-b][1,4]oxazin-3(4H)-one] |
| 0.5 to 5 | < 0.5 | < 10 | CN1CCN(c2cccc(Nc3ncc(F)c(Nc4ccc5c(n4)NC(=O)C(C)(C)O5)n3)c2)CC1 [compound 161, 6-(5-fluoro-2-(3-(4-methylpiperazin-1-yl)phenylamino)pyrimidin-4-ylamino)-2,2-dimethyl-2H-pyrido[3,2-b][1,4]oxazin-3(4H)-one] |
| 0.5 to 5 | 0.5 to 5 | < 10 | CCN1C(=O)COc2ccc(Nc3nc(Nc4ccc(N5CCN(C)CC5)cc4)ncc3Cl)cc21 [compound 173, 6-(5-chloro-2-(4-(4-methylpiperazin-1-yl)phenylamino)pyrimidin-4-ylamino)-4-ethyl-2H-benzo[b][1,4]oxazin-3(4H)-one] |
| 0.5 to 5 | 0.5 to 5 | < 10 | Cc1cnc(Nc2ccc(N3CCN(C)CC3)cc2)nc1Nc1ccc2c(c1)N(CCCF)C(=O)CO2 [compound 188, 4-(3-fluoropropyl)-6-(5-methyl-2-(4-(4-methylpiperazin-1-yl)phenylamino)pyrimidin-4-ylamino)-2H-benzo[b][1,4]oxazin-3(4H)-one] |
| 0.5 to 5 | ≥ 10 |  | CN1C(=O)COc2ccc(Nc3nc(Nc4ccc(N5CCN(S(C)(=O)=O)CC5)cc4)ncc3Cl)cc21 [compound 197, 6-(5-chloro-2-(4-(4-(methylsulfonyl)piperazin-1-yl)phenyl-amino)pyrimidin-4-ylamino)-4-methyl-2H-benzo[b][1,4]oxazin-3(4H)-one] |
